The results in this text go back to patent publication US20160200769A1, “Compound, Transitmycin, Effective Against Bacterial and Viral Pathogens” (INDIAN COUNCIL OF MEDICAL RESEARCH, priority 2013, published 2016).

For series [1], the system named is dormant tubercle bacilli grown under hypoxic condition. Kind of series: Activity against latent TB bacilli, Wayne's dormant model. Type of series: cell-based, M. tuberculosis.
Series [2] deals with M. tuberculosis (XDR). The series can be described thus: microbe, parasite or virus in culture. Type of series: cell-based. The following applies: Mycobacterium tuberculosis.
Series [3] relates to Staphylococcus aureus (NCIM5021). The series can be described thus: MIC by micro dilution broth assay with resazurin. The series is classed as cell-based. The following applies: 18 hours at 37° C. Here is the method: (§1) The minimum inhibitory concentration (MIC) of the compound of formula (I) is determined for other bacterial pathogens Staphylococcus aureus (NCIM5021), Pseudomonas aeruginosa (NClM5029) and Escherichia coli (NCIM2931). The minimum inhibitory concentration (MIC) is determined by micro dilution broth assay method with modifications using resazurin as an indicator as follows:
(§2) (i) dissolving the compound of formula (I) in absolute ethanol to a concentration of 10 mg/ml;
(§3) (ii) Serially diluting the compound and adding to successive wells in a 96 well microtiter plate and incubating with the bacterial pathogens for 18 hours at 37° C.;
(§4) (iii) maintaining the growth and sterility controls during the experiment;
(§5) (iv) adding 10 μl of 0.01% resazurin solution and incubating for 2 hours;
(§6) (v) visually assessing the color change.
(§7) Blue colour indicates inhibition of growth, indicating MIC.
For orientation: Resazurin is reduced to fluorescent resorufin, in cell work by metabolically active cells.

Series [4] deals with Escherichia coli (NCIM2931). Kind of series: MIC by micro dilution broth assay with resazurin. The series is classed as cell-based. To be noted: 18 hours at 37° C. As to the method:
as §1, §2, §3, §4, §5, §6, §7

Series [5] concerns Pseudomonas aeruginosa (NCIM5029). The series can be described thus: MIC by micro dilution broth assay with resazurin. The series is classed as cell-based. To be noted: 18 hours at 37° C. As to the method: as §1, §2, §3, §4, §5, §6, §7
The test system of series [6] is M. tuberculosis SHRE sensitive. The series can be described thus: microbe, parasite or virus in culture. Type of series: cell-based. The following applies: Mycobacterium tuberculosis.
Series [7] relates to biofilm of M. tuberculosis isolates (SHRE sensitive, MDR and XDR). Kind of series: Inhibitory activity against MTB biofilm. The series is classed as cell-based.
For series [8], the system named is M. tuberculosis H37Rv. The series can be described thus: microbe, parasite or virus in culture. The series is classed as cell-based. The following applies: Mycobacterium tuberculosis.
In series [9] the test system is Indie-Cl (Clade C virus). The series can be described thus: Anti-HIV activity of purified compound, p24 antigen in infected PBMC. Type of series: cell-based, HIV-1. To be noted: day 7, 0 μg/ml control 406. Here is the method: (§8) Virus production by transfection of 293T cells: 293T cells are plated at a concentration of 1×10^6 cells/ml in a 100 mm culture dish and grown at 37° C. in a CO2 incubator for 24 hours. Cells are transfected with 20 μg of HIV IIIB plasmid DNA using the mammalian cell transfection kit (Millipore). The culture supernatant is collected at 48 hours post transfection, clarified by centrifugation and stored in liquid nitrogen.
(§9) Titration of virus stock: Seven serial four-fold dilutions of virus stock, ranging from 1:[…] are titrated in triplicate in a 96-well flat bottomed tissue culture plate containing 200,000 cells/well (PBMC stimulated with PHA for 72 hours). After 7 days of culture at 37° C. in a CO2 incubator, the titration assay is terminated and the culture supernatants are tested for HIV-1 p24 antigen. The TCID50 (tissue culture infection dose50) is calculated employing the Spearman-Kaber method.
(§10) Testing for anti-HIV activity of compound: HIV IIIB is used as a representative Glade B virus and Indie-Cl as a representative Glade C virus. Healthy donor PBMC (Peripheral blood mononuclear cells) activated through PHA (Phyto heme agglutinin) stimulation for 72 hours are incubated with 100TCID50 of the virus per 1×10^6 cells for 2 hours at 37° C. The cells are washed twice to get rid of the unadsorbed virus and plated at a concentration of 200,000 cells/well in a 96-well tissue culture plate. Varying concentrations of the compound are added to triplicate wells (concentrations tested were 0.001 μg/ml, 001 μg/ml, 0.1 μg/ml, 1.0 μg/ml, 5.0 μg/ml and 10.0 tg/ml). Control cultures are set up without addition of the compound. Cultures are maintained for 7 days at 37° C. in a CO2 incubator. On day 7, culture supernatants are tested for HIV-1 p24 antigen.
(§11) Measurement of HIV-1 p24 antigen: HIV-1 p24 antigen production is measured as an indirect measure of viral replication in the culture supernatants using the Alliance HIV-1 p24 ELISA kit (Perkin Elmer, USA).
(§12) Virus growth is .determined, by measuring p24 concentrations in culture supernatants.

Series [10] relates to HIV IIIB (Clade B virus). The series is described as above. The following applies: day 7, 0 μg/ml control 2394. The series is classed as cell-based, HIV-1. Here is the method: as §8, §9, §10, §11, §12
Series [11] is described as follows: Solubility of purified compound in solvents. Type of series: physicochemical. As to the method:
Solubility of purified compound is tested by adding the purified compound in 100 jxl of solvents such as methanol, chloroform, dichloromethane, diethyl ether, ethyl acetate and n-hexane. Melting point of the purified compound is tested using Tempo instrument and is determined as 240-242° C.

Series [12] has as its system 3T3 cells. The series can be described thus: Cytotoxicity, MTT assay. Type of series: cell-based. To be noted: for Average % Viability: 3T3 cells, MTT. The arrangement: unit of the concentration uncertain. As to the method:
Cytotoxicity of the compound is measured by adopting MTT assay (Mosmann, 1983) as follows:
(i) preparing, the sample by inoculating 3T3 cells in 5×10^4 concentrations in each well of 96 well microtiter plates with in Dulbecco's modified Eagles medium (DMEM) containing 10% FBS, 100 U/ml Penicillin 100 µg/ml Streptomycin;
(ii) incubating for a period of 2 days at a temperature of 37° C. in 5% CO2 atmosphere (Astec Japan); […]
(iv) Discarding the growth medium in the plates and washing the wells with phosphate buffer saline (PBS);
(v) Adding MTT in growth medium at a final concentration of 0.5 mg/ml and incubating for 4 hours;
(vi) solublizing the insoluble formazan crystals' with 0.04N HCl in isopropylalcohol and measuring the absorption on a Spectramax Plus384 spectrophotometer (Molecular Devices, Calif., USA) at 570 nm.
For each of the samples evaluated, the test is performed in triplicate. The control cells are treated with PBS. Overnight experiment is done with DMSO alone as a control.
Background: Formazan colour is commonly taken as a measure of viable cells.

*1 amine or outer side, *2 acyl side, *3 side chain or, on linkers, in order; H or OH if unused. Where a SMILES comes first, the peptide text is derived from it. Bridges are numbered along the chain shown (N, C = ends). Roman numbers before positions name the chains, in order. [ ]: non-standard residue; d: D form. Actinocin(1to9) = Cc1c2oc3c(C)ccc(C(=O)[*:2])c3nc-2c(C(=O)[*:1])c(N)c1=O; Pro(4-oxo) = O=C1CN[C@H](C(=O)O)C1; NMeV = CN[C@H](C(=O)O)C(C)C; Sar = CNCC(=O)O A value given as a limit tells only on which side of the number the result lay.

On to `NNC(=O)c1ccncc1` [INH, reference compound], for which the “Effect of standard drug against latent tubercle bacilli” value in series [1] (negative control) is listed as “resistant”.
Consider `Cc1c2oc3c(C)ccc(C(=O)N[C@@H]4C(=O)N[C@@H](C(C)C)C(=O)N5CCC[C@H]5C(=O)N(C)CC(=O)N(C)[C@@H](C(C)C)C(=O)O[C@@H]4C)c3nc-2c(C(=O)N[C@@H]2C(=O)N[C@@H](C(C)C)C(=O)N3CC(=O)C[C@H]3C(=O)N(C)CC(=O)N(C)[C@@H](C(C)C)C(=O)O[C@@H]2C)c(N)c1=O` [compound of formula (I), Transitmycin] (I: TV[Pro(4-oxo)][Sar][NMeV] / II: TVP[Sar][NMeV]; ester I:1-I:C, II:1-II:C; linker I:N-II:N via Actinocin(1to9)), for which the MIC in series [2] is 6.25 µg/mL; in series [3] it was 139 µg/mL; in series [4] it was 17.4 µg/mL; in series [5], 17.4 µg/mL; in series [6] it was 1.5 µg/mL; in [8], < 1 µg/mL. Moreover, in [7] (100 μg/ml, 37° C., 5 weeks), the Biofilm formation result is given as “no, biofilm formation”. Also, the “Viable colonies (CFU) after treatment of wells” value in [7] (at the end of 2 months, […]) is “no viable colonies”. The P24 antigen in [9] (compound 0.001 μg/ml) was determined as 390 pg/mL; in series [9] (compound 0.01 μg/ml) it was 310 pg/mL; in [9] (compound 0.1 μg/ml), 344 pg/mL; in series [9] (compound 1 μg/ml) it was 302 pg/mL; in series [9] (compound 5 μg/ml) it was 295 pg/mL; in [9] (compound 10 μg/ml), 296 pg/mL. The P24 antigen in series [10] (compound 0.001 μg/ml) was found to be 1603 pg/mL; in series [10] (compound 0.01 μg/ml) it was 337 pg/mL; in [10] (compound 0.1 μg/ml), 163 pg/mL; in series [10] (compound 1 μg/ml), 144 pg/mL; in series [10] (compound 5 μg/ml) it was 147 pg/mL; in series [10] (compound 10 μg/ml) it was 163 pg/mL. For the same compound, the “CFU in M. tuberculosis cultures compared with CFU without the compound” value in series [1] is listed as “Reduction in the CFU”. Moreover, the Solubility entry is given as “Souble” in [11] (Chloroform, Dichloromethane, Ethyl acetate, Methanol, Ethanol, Acetonitrile, DMSO, water) and “Insoluble” in [11] (Hexane). Further, the “Average % Viability” value in series [12] (10 (unit uncertain)) is on record as 93.00%; in series [12] (25 (unit uncertain)) it was 86.01%; in series [12] (50 (unit uncertain)), 73.88%; in series [12] (100 (unit uncertain)), 66.13%. Further, the Cytotoxic activity entry in [12] (even at 100 (unit uncertain) concentration) is listed as “very poor cytotoxic activity”.
